Measured values taken from patent publication US5108990A, “Glutamic acid derivatives” (Roussel Uclaf, priority 1987, dated 1992).
Where a name gives a salt, the structure may show the parent alone.

Tests used:
monocytes [1] = assay: Stimulation of monocytic cells; Interleukin-1 (IL-1) test on supernatants/lysates (mouse thymocyte co-mitogenic assay); type: cell-based, human; details: for stimulation of monocytes and their IL-1 production: adherent blood monocytes cultured 24 or 48 hours with test product; for synergy with interferon-γ and or LPS: monocyte stimulation (IL-1 and TNF production), IFN-γ 10^3 U/ml, a dose inactive alone
Protocol: (§1) The mononuclear cells of the circulating blood of normal donors were separated by the classical technique described by Boyum using a Ficoll gradient. After being washed, the mononuclear cells were incubated at 37° C. for 1 hour in the proportion of 5×10^6 monocytes (NSE^+ cells) per ml of culture medium, 5 ml per culture bottle. The culture medium used in this experiment was composed of RPMI 1640 to which antibiotics and HEPES buffer had been added. After one hour, the non-adherent cells were removed by washing the bottles with medium previously brought to 37° C., and the adherent cells, composed essentially of monocytes (>90%), were cultured again in the presence of different amounts of test products in a PBS medium (Dulbecco) without Ca^2+ or Mg^2+. Culturing was continued for 24 or 48 hours and the cell supernatants were then withdrawn, centrifuged, aliquoted and stored either at -80° C. or at -20° C. The culture supernatants were replaced in the bottles by the same amount of pyrogen-free distilled water to lyse the cells. The lysate was recovered, aliquoted and also stored at -20° C.
(§2) Tests for the presence in the supernants of monokines (interleukin-1 and tumor necrosis factor) on the basis of their biological activity.
This test was first described by Gery et al in 1972 [Gery et al, 1972 Potentiation of the T Lymphocyte response to mitogens. II. The Cellular Source of Potentiating Mediator(s). J. Exp. Med., 136-143]. It is based on the co-mitogenic action of IL-1 in the presence of an antigen (mimicked by phytohaemagglutinin in the test) on mouse thymocytes. 1.5×10^6 thymocytes of C3 H/HeJ mice (supplied by C.S.E.A.L. of Orleans) were cultured for 3 days in the presence of different dilutions of cell supernatants and lysates likely to contain IL-1 activity, and Wellcome PHA-P (1 μg/ml), in culture plates having 96 flat-bottomed wells, in a final volume of 200 μl of medium composed of RPMI 1640 containing, in addition to antibiotics (penicillin 1 μ/ml streptomycin 1000 μ/ml, 1 mM HEPES buffer, 2 mM glutamine, 5% calf serum and 5×10^-5 M 2-mercaptoethanol). After 68 hours of culturing, 1 μCi of tritiated thymidien was added to each well ([methyl^3 H]-thymidine, CEA Saclay, TMM79A, specific activity […]), and the radioactivity incorporated by the cells was measured after the cultures had been filtered on a Skaton type semi-automatic collecting apparatus and the filters counted in a scintillation counter (LKB). The results were expressed as the difference between the pulses per minute incorporated by the cultures in the presence of supernatants and the pulses per minute incorporated by the control cultures.

monocytes [2] = assay: Stimulation of monocytic cells; Tumor Necrosis Factor (TNF) test on supernatants (toxicity on L-929 target cells); type: cell-based, human; details: adherent blood monocytes cultured 24 or 48 hours with test product
Protocol: as §1, §2
The technique was sensitized by adding actinomycin D to the test. The L cells were distributed in the proportion of 2×10^4 cells per well of a flat-bottomed microplate in 100 μl of RPMI 1640 medium enriched with 5% calf serum, glutamine, HEPES buffer and antibiotics. After 24 hours, different dilutions of the test supernatants were added in a volume of 100 μl, as well as a dose of actinomycin D of 1 μg/ml. After 24 hours of culturing, the number of unlysed viable cells was measured by staining the plates with crystal violet and measuring the optical density of different wells on a multiscan reader.

human B lymphocytes = assay: Production of immuno-globulins (ELISA of supernatants, alone or with Staphylococcus aureus Cowan); type: cell-based; details: in the presence of SAC (10^-3 and 10^-4); 0.1, 1 and 10 μg/ml; one week
Protocol: The same cells were cultivated for a week in the presence of different products to be tested at a dose of 0.1, 1 and 10 μg/ml alone or in the presence of two doses of the bacteria Staphylococcus aureus Cowan (SAC) (10^-3 and 10^-4), bacteria known for stimulating the production of immuno-globulins by the human B lymphocytes in a non-specific manner. The supernatants are collected at the end of the culture, and their content of immuno-globulin is evaluated by standard techniques of detection by the ELISA method using a human anti-immunoglobulin anti-body available commercially. The results are given in ng of immuno-globulin per ml of supernatant.

Row | SMILES | stimulation of monocytes and their IL-1 production (monocytes [1]) | synergy with interferon-γ and or LPS (monocytes [1]) | stimulation of monocytes and their TNF production (monocytes [2]) | production of immuno-globulins in the presence of SAC (human B lymphocytes)
1 | C=C(CC(N)C(=O)O)CC(NC(=O)CC[C@@H](N)C(=O)O)C(=O)O (stereo partly drawn) [Example 1, 2-amino-6-(γ-D-glutamylamino)-4-methylene-heptanedioic acid] | stimulated | synergy | stimulated | –
2 | C=C(CC(NC(=O)CC[C@@H](N)C(=O)O)C(=O)O)CC(NC(=O)[C@H](C)N)C(=O)O (stereo partly drawn) [Example 2, 2-(L-Alanylamino)-6-(γ-D-glutamylamino)-4-methyleneheptanedioic acid] | stimulated | synergy | stimulated | –
3 | C=C(CC(N)C(=O)O)CC(NC(=O)CC[C@@H](NC(=O)[C@H](C)NC(=O)CCCCCCCCCCCCCCCCC)C(=O)O)C(=O)O (stereo partly drawn) [Example 8, 2-Amino-4-methylene-6-[N-1-oxo-octadecyl)-L-alanyl)-γ-D-glutamyl-amino]-heptanedioic acid and its tri sodium salt] | stimulated | synergy | stimulated | capable of increasing the production of immuno-globulins
4 | C=C(CC(N)C(=O)O)CC(NC(=O)CC[C@@H](NC(=O)CCCCCCCCCCCCCCCCC)C(=O)O)C(=O)O (stereo partly drawn) [Example 9, 2-Amino-4-methylene-6-[[N-(1-oxo-octadecyl)-γ-D-glutamyl]amino]-heptanedioic acid] | stimulated | synergy | stimulated | –
